Read-outs that look alike come from different tables or passages of the source.
Experiments:
[1] = tested on: A. baumannii clinical isolates; experiment: Rifabutin MIC with a fixed polymyxin concentration, broth microdilution in CAMHB/PIH; type: cell-based, Acinetobacter baumannii
Description: (§1) The MIC90 (the maximum Minimal Inhibitory Concentration which inhibits growth of 90% of the strains of a test panel) of rifabutin is 2 or 1 mg/L when tested respectively in RPMI/FCS for broth microdilution or MHA/PIH for agar dilution against a panel of 293 carbapenem-resistant Acinetobacter baumannii (CRAB) (Trebosc V, et al. 2020. In vitro activity of rifabutin against 293 contemporary carbapenem-resistant Acinetobacter baumannii clinical isolates and characterization of rifabutin mode of action and resistance mechanisms. J Antimicrob Chemother. 75(12):3552-3562, incorporated herein by reference). […] At these respective polymyxin concentrations, no strains, 3% of the strains, and <5% of the strains would be susceptible to the respective polymyxin. FIG. 1 illustrates the cumulative index and MIC50 and MIC90 of rifabutin in the presence of members of the polymyxin family of antibiotics at sub MIC (sub trough concentrations) showing the synergistic effect discussed above.
(§2) In vitro activity of rifabutin against 293 contemporary carbapenem-resistant Acinetobacter baumannii clinical isolates and characterization of rifabutin mode of action and resistance mechanisms. J Antimicrob Chemother. 75(12):3552-3562, incorporated herein by reference in its entirety). […] FIG. 2 illustrates the MIC distribution of rifabutin in the presence of members of the polymyxin family of antibiotics at sub MIC (sub trough concentrations) showing the synergistic effect discussed above.
The rifabutin MICs in combination with a fixed concentration of the specified polymyxin were determined by broth microdilution method according to the CLSI guideline. The medium used to determine the MICs was cation-adjusted Muller Hinton broth (CAMHB) supplemented with 0.1 mM of pyridoxal isonicotinoyl hydrazone (PIH). […] Accordingly, the MIC values were set at the first lowest rifabutin concentration preventing growth as assessed by visual inspection of the assay plate.

[2] = tested on: carbapenem-resistant Acinetobacter baumannii (CRAB); conditions: MHA/PIH, cited from earlier work
[3] = tested on: A. baumannii Pop1 and Pop2 strains; experiment: Time kill curves in CAMHB with 0.1 mM PIH; type: cell-based, Acinetobacter baumannii
Description: Based on the data of EXAMPLE 1, the bactericidal activity and the resistance development of rifabutin and of fixed rifabutin/polymyxin concentrations was assessed in time-kill curve experiments. […] FIGS. 3 and 4 show kill curve experiments on two different A. baumannii strains (Pop 1 and Pop2) having very different rifabutin MICs.
Based on the data of EXAMPLE 2, the bactericidal activity and the resistance development of rifabutin/polymyxin B was assessed in time kill curve experiments using a lower concentration of rifabutin and additional strains. Concentrations were fixed at 0.03 mg/L for rifabutin (on average, one thirty-second the rifabutin MIC90), and at 0.125 or 0.06 mg/L for polymyxin B (one fourth and one eighth the fCtrough of polymyxin B).
Time-kill kinetics were performed in CAMHB supplemented with 0.1 mM PIH medium. Rifabutin was tested at 0.25 mg/L with or without the specified concentration of a polymyxin agent. Samples were taken at 0, 2, 4, 8 and 24 hours in order to determine the colony forming units (cfu). Bactericidal activity is defined as ≥3-log reduction in cfu compared to the cfu present in the inoculum (0 hours).

[4] = tested on: A. baumannii Pop1 and Pop2 strains; experiment: Rifabutin MIC of the strains used for time-kill curves; type: cell-based; conditions: Acinetobacter baumannii
[5] = tested on: carbapenem-resistant Acinetobacter baumannii (CRAB); conditions: RPMI/FCS, broth microdilution, panel of 293 CRAB; cited from earlier work
[6] = tested on: A. baumannii clinical isolates; experiment: Susceptibility of panel strains to the polymyxin alone; type: cell-based, Acinetobacter baumannii; conditions: for number of strains with MIC>2 mg/L towards the polymyxin: polymyxin alone; for strains susceptible to the polymyxin at the fixed concentration: polymyxin alone at 0.125 mg/L
Description: as §1, §2

[7] = Example 2, colistin or polymyxin B alone at 0.125 or 0.03 mg/L, Pop 1 and Pop2 strains

Compound: CO[C@H]1/C=C/O[C@@]2(C)Oc3c(C)c(O)c4c(c3C2=O)C2=NC3(CCN(CC(C)C)CC3)NC2=C(NC(=O)/C(C)=C\C=C\[C@H](C)[C@H](O)[C@@H](C)[C@@H](O)[C@@H](C)[C@H](OC(C)=O)[C@@H]1C)C4=O [rifabutin, Rifabutin]
- strains having a rifabutin MIC≤1 mg/L in the presence of a polymyxin ([1]; CAMHB/PIH broth microdilution, about one-quarter of the fCtrough of the polymyxin): 99%
- MIC90 of rifabutin in the presence of a polymyxin ([1]; CAMHB/PIH broth microdilution, with 0.125 mg/L polymyxin B, 0.125 mg/L colistin or 0.03 mg/L SPR206 (about one-quarter of fCtrough)): 0.06 to 0.25 µg/mL
- fold lowering of rifabutin MIC90 in the presence of a polymyxin ([1]; subinhibitory concentrations of a polymyxin antibiotic): up to 32 fold
- strains in population 1 (rifabutin MICs<0.125 mg/L) ([2]; 293 CRAB): 72%
- strains in population 2 (rifabutin MICs≥0.125 to <16 mg/L) ([2]; 293 CRAB): 27%
- strains in population 3 (rifabutin MICs≥16 mg/L) ([2]; 293 CRAB): 1%
- MIC90 of rifabutin ([2]; agar dilution, panel of 293 CRAB): 1 µg/mL
- bactericidal activity in time-kill curves ([3]; Example 2, rifabutin alone at 0.25 mg/L, Pop 1 and Pop2 strains): either poorly bactericidal or allow for regrowth
- bactericidal activity in time-kill curves ([3]; Example 3, rifabutin alone at 0.03 mg/L, Pop1 and Pop2 strains): either poorly bactericidal or allowed for regrowth
- MIC ([4]; A. baumannii Pop 1 strain of FIG. 3): 0.016 µg/mL
- MIC ([4]; A. baumannii Pop2 strain of FIG. 4): 1 µg/mL
- MIC ([4]; ATCC17978, Pop 1 strain ATCC 17978): 0.008 µg/mL
- MIC ([4]; Pop 1 strain HUMC1): 0.002 µg/mL
- MIC ([4]; Pop2 strain LAC-4): 1 µg/mL
- MIC ([4]; Pop2 strain UNT238-1): 2 µg/mL
- MIC90 of rifabutin [5]: 2 µg/mL

Compound: SPR206 acetate
- bactericidal activity in time-kill curves ([3]; Example 2, SPR206 alone at 0.03 mg/L, Pop 1 and Pop2 strains): either poorly bactericidal or allow for regrowth
- number of strains with MIC>2 mg/L towards the polymyxin [6]: 18 strains

Compound: colistin sulfate
- bactericidal activity in time-kill curves [3, 7]: either poorly bactericidal or allow for regrowth
- number of strains with MIC>2 mg/L towards the polymyxin [6]: 45 strains
- strains susceptible to the polymyxin at the fixed concentration [6]: 3%

Compound: polymyxin B sulfate
- bactericidal activity in time-kill curves [3, 7]: either poorly bactericidal or allow for regrowth
- bactericidal activity in time-kill curves ([3]; Example 3, polymyxin B alone at 0.125 or 0.06 mg/L, Pop1 and Pop2 strains): either poorly bactericidal or allowed for regrowth
- number of strains with MIC>2 mg/L towards the polymyxin [6]: 40 strains
- strains susceptible to the polymyxin at the fixed concentration [6]: no strains
